Experimental findings from patent publication US7582656B2, “Guanidine derivatives and therapeutic uses thereof” (Merck Patent Gesellschaft, priority 2004, dated 2009) are described below.

One data set has as its system human CETP promoter. Put plainly: luciferase reporter under the control of the human CETP promoter, inhibition of CETP expression. It is filed as cell-based. The conditions noted are these: final concentration of 15 μM, incubated overnight, Steady Glo luciferase read by luminometer. The protocol: The stably transfected cell line (luciferase under the control of the human CETP promoter) is maintained in the growth medium (DMEM/Hepes, F12, Glutamax, FBS and geneticin) incubated at 37° C., 95% humidity and 5% CO2 to the point of confluence. The cells are then rinsed with PBS and detached with a trypsin/EDTA mixture. The medium is changed every 2 to 3 days.
The resuspended cells are diluted and counted, and then distributed in microplate (96) wells.
About 20 000 cells per well are distributed and incubated overnight at 37° C. with 5% CO2.
The compounds of the present invention are diluted to a final concentration of 15 μM and distributed in the plates containing the cells.
The plates are incubated overnight at 37° C. with 5% CO2.
The medium covering the cells is drawn off and 100 μl of Steady Glo luciferase (DMEM without phenol red/Steady Glo, V/V) are added to the cells.
The plates are sealed with a film and left in the dark for about 20 minutes at room temperature.
The plates are then read using a luminometer (1 sec/well).
The inhibition of CETP expression by the products is expressed as a percentage of the control: […]

Data set [1] concerns stably transfected cell line. Put plainly: neutral red cellular toxicity check of the cultures. It is filed as cell-based. The note with it: neutral red 3 hours at 37° C., read at 540 nm. The protocol: On another batch of plates not treated with Steady Glo, the state of the cultures is checked by microscope. The culture medium is removed and 100 μl of medium comprising neutral red are added for 3 hours at 37° C.
The medium is then removed and replaced for one minute with 100 μl of formaldehyde-calcium (10 ml of 37% formaldehyde+calcium chloride dihydrate 10 g qs 1 L).
The plate is emptied and 100 μl of acetic acid-ethanol mixture (10 ml of glacial acetic acid+500 ml of absolute ethanol qs 1 L) are added to each well for 15 minutes with stirring.
The plates are then read at 540 nm. The stronger the coloration, […].

Take `CC(C)CCN=C(NCC(C)(C)CN)Nc1ccc(OCc2ccccc2)cc1` [Example 5, N-(3-Amino-2,2-dimethylpropyl)-N′-(4-benzyloxyphenyl)-N″-(3-methylbutyl)-guanidine]: the “activity expressed as a percentage of the control” value (from here on “activity expressed as a percentage”) in the data set with human CETP promoter came out at 46%. For the same compound, in data set [1], the cellular toxicity result is given as “No cellular toxicity is detected”.
As for `COCCOc1ccc(N=C(NCCCN)N2CCC(C)CC2)cc1` [Example 31, N-(3-Aminopropyl)-N′-[4-(2-methoxyethoxy)phenyl]-4-methylpiperidine-1-carboxamidine], the “activity expressed as a percentage” value in the data set with human CETP promoter is recorded as 30%. Besides, in data set [1], the cellular toxicity result was “No cellular toxicity is detected”.
As for `CCC1CCCCN1C(=Nc1ccc(OCc2ccc(C(C)(C)C)cc2)cc1)NCCCN` (centres unmarked) [Example 61, N-(3-Aminopropyl)-N′-[4-(4-tert-butylbenzyloxy)phenyl]-2-ethylpiperidine-1-carboxamidine], the “activity expressed as a percentage” value with human CETP promoter came to 33%. For the same compound, the cellular toxicity result in data set [1] is reported as “No cellular toxicity is detected”.
For `NCCCNC(=Nc1ccc(OCCCC(F)(F)F)cc1)N1CCC(Cc2ccccc2)CC1` [Example 95, N-(3-Aminopropyl)-4-benzyl-N′-[4-(4,4,4-trifluorobutoxy)phenyl]piperidine-1-carboxamidine], in that order: 16% and “No cellular toxicity is detected”.
